Earlier results on 1 compound are cited in patent publication US11285148B1 (King Abdulaziz University, priority 2021, dated 2022).

The data set deals with yeast isolates obtained from cases of keratitis.

Consider `CC(=O)N1CCN(c2ccc(OCC3COC(Cn4ccnc4)(c4ccc(Cl)cc4Cl)O3)cc2)CC1` (stereo not shown) [KET, Ketoconazole], for which the Minimum inhibitory concentration was 0.015 to 0.125 µg/mL.
